Results from patent publication US20030225001A1, “Preparation of an auricularia auricula polysaccharide and its use in mammals” (priority 2002, published 2003).

Tested on: serum lipids (TC, TG, HDL, TC/HDL ratio) in humans
Test: Multicenter double-blind random trial: effect of AP on serum total cholesterol and triglycerides in humans
Format: in vivo, human
Text: A multicenter study, based on the Fujian Traditional Chinese Medicine Research Institute protocol, involved 476 patients between November 1994 and August 1996.
The total patient population was approximately 61% male, with the AP group being approximately 60% male and the control group approximately 64% male. Patients in each group were […] and averaged approximately 54-55 years of age. 164 patients had total cholesterol (TC) levels of 6.5-8.0 mmol/L, and 275 patients had triglycerides (TG) levels of 1.6-3.0 mmol/L. 131 patients had low high density lipoprotein (HDL) (<1.04 mmole/L for male, HDL<1.17 mmol/L for female). 201 patients had raised TC/HDL ratios (>5).
Patients with liver, renal and thyroid disease, as well as pregnant women and those who were on medications that could affect serum lipid readings, were excluded. Also excluded were patients who within the last year had had acute myocardial infarction, cerebral vascular diseases, major trauma and/or major surgery, as well as those with severe coronary or renal failure.
All medications were taken 2 times daily for 8 weeks. Although medications were administered by capsules, it should be understood that medications could be administered by tablets, liquids and/or pills as well.

CC(C)OC(=O)C(C)(C)Oc1ccc(C(=O)c2ccc(Cl)cc2)cc1 [FF, Fenofibrate]
Range of decreases (HDL level) (HDL, start vs end of 8 weeks): 0.18 ± 0.15 mmol/L | End HDL (after 8 weeks, AP 3 x 200 mg capsules or FF 100 mg tablet, 2 times daily): 1.06 ± 0.27 mmol/L | Start HDL (baseline, patients with low HDL): 0.88 ± 0.27 mmol/L | End TC (total cholesterol after 8 weeks, AP 3 x 200 mg capsules or FF 100 mg tablet, 2 times daily): 6.46 ± 1.33 mmol/L | Start TC (total cholesterol, baseline, patients with raised TC): 7.81 ± 1.38 mmol/L | End TC (table: Effect of AP on triglyceride (TG) level) (triglyceride table, after 8 weeks, AP 3 x 200 mg capsules or FF 100 mg tablet, 2 times daily): 1.96 ± 1.10 mmol/L | Start TC (table: Effect of AP on triglyceride (TG) level) (triglyceride table, baseline, patients with raised TG): 2.94 ± 1.38 mmol/L
